Data published in ChEMBL document CHEMBL3046390, “Multifunctionalised benzoxazinones in the systems Oryza sativa-Echinochloa crus-galli and Triticum aestivum-Avena fatua as natural-product-based herbicide leads” (Pest Manag Sci, 2010).
Activity calls are given as the source filed them. The calls are words filed in the database; no cut-off is given here.

Columns and labels:
[1] = Selectivity idex, ratio of IC50 for root elongation in Triticum aestivum to IC50 for root elongation in Avena fatua
[2] = Selectivity idex, ratio of IC50 for root elongation in Oryza sativa to IC50 for root elongation in Echinochloa crus-galli
Triticum aestivum [3] = test: Phytotoxicity against Triticum aestivum (wheat) assessed as inhibition of root elongation after 5 days relative to control; assay type: organism-based; settings: 120 h
Avena fatua [4] = test: Herbicidal activity against Avena fatua assessed as inhibition of shoot length at 0.05 uM to 1 mM after 5 days relative to control; assay type: functional, organism-based
Avena fatua [5] = test: Herbicidal activity against Avena fatua assessed as inhibition of root length after 5 days relative to control; assay type: functional, organism-based; settings: 120 h
Avena fatua [6] = test: Herbicidal activity against Avena fatua assessed as inhibition of seed germination at 0.05 uM to 1 mM after 5 days relative to control; assay type: functional, organism-based
Echinochloa crus-galli [7] = test: Herbicidal activity against Echinochloa crus-galli (barnyard grass) assessed as inhibition of root length after 5 days relative to control; assay type: functional, organism-based; settings: 120 h
Echinochloa crus-galli [8] = test: Herbicidal activity against Echinochloa crus-galli (barnyard grass) assessed as inhibition of shoot length at 0.05 uM to 1 mM after 5 days relative to control; assay type: functional, organism-based
Echinochloa crus-galli [9] = test: Herbicidal activity against Echinochloa crus-galli (barnyard grass) assessed as inhibition of seed germination at 0.05 uM to 1 mM after 5 days relative to control; assay type: functional, organism-based
Triticum aestivum [10] = test: Phytotoxicity against Triticum aestivum (wheat) assessed as inhibition of seed germination at 10 uM to 1 mM after 5 days relative to control; assay type: organism-based; settings: in vivo, 120 h
Oryza sativa [11] = test: Phytotoxicity against Oryza sativa (rice) assessed as inhibition of root elongation after 7 days relative to control; assay type: organism-based; settings: 168 h
Oryza sativa [12] = test: Phytotoxicity against Oryza sativa (rice) assessed as inhibition of seed germination at 10 uM to 1 mM after 7 days relative to control; assay type: organism-based; settings: in vivo, 168 h
Echinochloa crus-galli [13] = test: Ratio of Contanil IC50 to compound IC50 for root elongation in Echinochloa crus-galli (barnyard grass); assay type: functional
Echinochloa crus-galli [14] = test: Herbicidal activity against Echinochloa crus-galli (barnyard grass) assessed as inhibition of root elongation at 52 uM after 5 days relative to control; assay type: functional; settings: 120 h
[15] = Phytotoxicity against Oryza sativa (rice) assessed as inhibition of root elongation at 52 uM after 7 days relative to control; assay type: organism-based; settings: in vivo
[16] = Phytotoxicity against Triticum aestivum (wheat) assessed as inhibition of root elongation at 6 uM after 5 days relative to control; assay type: organism-based; settings: in vivo
Avena fatua [17] = test: Herbicidal activity against Avena fatua assessed as inhibition of root elongation at 6 uM after 5 days relative to control; assay type: functional; settings: 120 h
[18] = Phytotoxicity against Triticum aestivum (wheat) assessed as inhibition of root elongation at 114 uM after 5 days relative to control; assay type: organism-based; settings: in vivo
Avena fatua [19] = test: Herbicidal activity against Avena fatua assessed as inhibition of root elongation at 114 uM after 5 days relative to control; assay type: functional; settings: 120 h

Row | Structure (SMILES) | Ratio IC50 [1] | Ratio IC50 [2] | IC50 (Triticum aestivum [3]) [µM] | inhibition (Avena fatua [4]) | IC50 (Avena fatua [5]) [µM] | inhibition (Avena fatua [6]) | IC50 (Echinochloa crus-galli [7]) [µM] | inhibition (Echinochloa crus-galli [8]) | inhibition (Echinochloa crus-galli [9]) | Activity (Triticum aestivum [10]) | IC50 (Oryza sativa [11]) [µM] | Activity (Oryza sativa [12]) | Ratio IC50 (Echinochloa crus-galli [13]) | inhibition at 52 µM (Echinochloa crus-galli [14]) [%] | inhibition at 168 h, 52 µM [15] [%] | inhibition at 120 h, 6 µM [16] [%] | inhibition at 6 µM (Avena fatua [17]) [%] | inhibition at 120 h, 114 µM [18] [%] | inhibition at 114 µM (Avena fatua [19]) [%]
1 | CCCCC(=O)ON1C(=O)COc2ccc(F)cc21 [6-F-4-Val-D-DIBOA] | 8.92 | 0.78 | 58.2 | Active | 6.53 | Active | 8 | Active | Active | Non-toxic | 6 | Non-toxic | 12 |  |  |  |  |  | 
2 | CCC(=O)Nc1ccc(Cl)c(Cl)c1 [PROPANIL] |  | 1.87 |  |  |  |  |  |  |  | Non-toxic |  | Non-toxic |  |  |  |  |  |  | 
3 | CCC1Oc2ccc(F)cc2N(O)C1=O [6-F-2-Et-D-DIBOA] | 2.59 | 0.58 | 63.1 | Active | 24.4 | Active | 25 | Active | Active | Non-toxic | 15 | Non-toxic |  |  |  |  |  |  | 
4 | CCCC1Oc2ccc(F)cc2N(O)C1=O (stereo unspecified) | 4.78 | 1.85 | 766 | Active | 160 | Active | 183 | Active | Active | Non-toxic | 337 | Non-toxic |  |  |  |  |  |  | 
5 | CCC(=O)ON1C(=O)COc2ccc(Cl)cc21 | 2.42 | 0.2 | 46.6 | Active | 19.3 | Active | 14 | Active | Active | Non-toxic | 3 | Non-toxic |  |  |  |  |  |  | 
6 | CCC(=O)ON1C(=O)COc2c(Cl)cccc21 [8-Cl-4-Pr-D-DIBOA] | 4.06 | 16.6 | 1300 | Active | 321 | Active | 52 | Active | Active | Non-toxic | 859 | Non-toxic |  | 70 | 8 |  |  |  | 
7 | CCCC1Oc2ccc(Cl)cc2N(O)C1=O [6-Cl-2-Pr-D-DIBOA] | 3.82 | 1.19 | 470 | Active | 123 | Active | 131 | Active | Active | Non-toxic | 156 | Non-toxic |  |  |  |  |  |  | 
8 | CCCCC(=O)ON1C(=O)COc2ccc(Cl)cc21 [6-Cl-4-Val-D-DIBOA] | 7.52 | 0.16 | 26.6 | Active | 3.54 | Active | 14 | Active | Active | Non-toxic | 2 | Non-toxic |  |  |  |  |  |  | 
9 | O=C1C(c2ccccc2)Oc2ccc(F)cc2N1O [6-F-2-Ph-D-DIBOA] | 3.65 | 5.86 | 641 | Active | 176 | Active | 211 | Active | Active | Non-toxic | 1240 | Non-toxic |  |  |  |  |  |  | 
10 | CCC1Oc2ccc(Cl)cc2N(O)C1=O [6-Cl-2-Et-D-DIBOA] | 0.28 | 0.07 | 130 | Active | 466 | Active | 840 | Active | Active | Non-toxic | 56 | Non-toxic |  |  |  |  |  |  | 
11 | CCC1Oc2c(Cl)cccc2N(O)C1=O [8-Cl-2-Et-D-DIBOA] | 2.25 | 2.11 | 345 | Active | 154 | Active | 145 | Active | Active | Non-toxic | 305 | Non-toxic |  |  |  |  |  |  | 
12 | CCCC1Oc2c(Cl)cccc2N(O)C1=O [8-Cl-2-Pr-D-DIBOA] | 5.37 | 7.44 | 393 | Active | 73.2 | Active | 83 | Active | Active | Non-toxic | 614 | Non-toxic |  |  |  |  |  |  | 
13 | CCC(=O)ON1C(=O)COc2ccc(F)cc21 [6F-4Pr-D-DIBOA] | 13.2 | 0.36 | 81.9 | Active | 6.22 | Active | 9 | Active | Active | Non-toxic | 3 | Non-toxic | 12 |  |  | 25 | 70 |  | 
14 | CCCCC(=O)ON1C(=O)COc2c(Cl)cccc21 | 14.4 | 11.1 | 1640 | Active | 114 | Active | 64 | Active | Active | Non-toxic | 712 | Non-toxic |  |  |  |  |  | 18 | 70
15 | O=C1C(c2ccccc2)Oc2ccc(Cl)cc2N1O [6-Cl-2-Ph-D-DIBOA] | 3.51 | 10.5 | 690 | Active | 197 | Active | 94 | Active | Active | Non-toxic | 992 | Non-toxic |  |  |  |  |  |  | 
16 | O=C1C(c2ccccc2)Oc2c(Cl)cccc2N1O [8-Cl-2-Ph-D-DIBOA] | 1.75 | 3.51 | 263 | Active | 150 | Active | 109 | Active | Active | Non-toxic | 384 | Non-toxic |  |  |  |  |  |  | 
